Source: the NIST ThermoML archive (doi:10.1016/j.fluid.2010.01.023)
Values joined by “and” are separate entries in the source; they are usually repeats but may differ in a detail not shown here. Identical values can stand only once.

Experiment: xn = mol fraction of the nth substance listed
Settings: Fluid (supercritical or subcritical phases), quasistatic thermogram and barogram, x2 = 0.7393

N [ammonia] + O
Settings | thermal pressure coefficient
594.84 K, Mass density=120.03 kg/m3 | 91 kPa/K
594.84 K, Mass density=147.43 kg/m3 | 126 kPa/K
595.16 K, Mass density=376.89 kg/m3 | 205 kPa/K and 295 kPa/K
595.35 K, Mass density=147.43 kg/m3 | 124 kPa/K
595.35 K, Mass density=456.58 kg/m3 | 451 kPa/K
595.53 K, Mass density=342.18 kg/m3 | 199 kPa/K
595.61 K, Mass density=285.71 kg/m3 | 196 kPa/K
595.78 K, Mass density=309.95 kg/m3 | 200 kPa/K
595.78 K, Mass density=376.89 kg/m3 | 296 kPa/K
596.04 K, Mass density=160.07 kg/m3 | 183 kPa/K
596.04 K, Mass density=227.54 kg/m3 | 195 kPa/K
596.47 K, Mass density=308.35 kg/m3 | 205 kPa/K
596.73 K, Mass density=307.35 kg/m3 | 201 kPa/K
596.9 K, Mass density=271.09 kg/m3 | 199 kPa/K
597.08 K, Mass density=342.18 kg/m3 | 198 kPa/K
597.33 K, Mass density=160.07 kg/m3 | 151 kPa/K
597.33 K, Mass density=311.19 kg/m3 | 199 kPa/K
597.33 K, Mass density=376.89 kg/m3 | 306 kPa/K
597.35 K, Mass density=160.07 kg/m3 | 174 kPa/K and 147 kPa/K
597.42 K, Mass density=295.31 kg/m3 | 196 kPa/K
597.5 K, Mass density=188.05 kg/m3 | 187 kPa/K
597.56 K, Mass density=342.18 kg/m3 | 197 kPa/K and 261 kPa/K
597.59 K, Mass density=218.92 kg/m3 | 197 kPa/K
597.76 K, Mass density=292.97 kg/m3 | 199 kPa/K
598.19 K, Mass density=224.53 kg/m3 | 198 kPa/K
598.28 K, Mass density=376.89 kg/m3 | 311 kPa/K
598.33 K, Mass density=329 kg/m3 | 195 kPa/K and 249 kPa/K
598.36 K, Mass density=160.07 kg/m3 | 140 kPa/K
598.45 K, Mass density=320.33 kg/m3 | 197 kPa/K
598.54 K, Mass density=297.6 kg/m3 | 191 kPa/K
598.57 K, Mass density=301.94 kg/m3 | 199 kPa/K
598.63 K, Mass density=291.16 kg/m3 | 201 kPa/K
598.71 K, Mass density=297.6 kg/m3 | 192 kPa/K
598.96 K, Mass density=243.97 kg/m3 | 201 kPa/K
598.96 K, Mass density=320.33 kg/m3 | 192 kPa/K and 246 kPa/K
598.97 K, Mass density=376.89 kg/m3 | 311 kPa/K
599.05 K, Mass density=160.07 kg/m3 | 139 kPa/K
599.05 K, Mass density=299.79 kg/m3 | 192 kPa/K
599.05 K, Mass density=329 kg/m3 | 258 kPa/K
599.14 K, Mass density=160.07 kg/m3 | 137 kPa/K
599.22 K, Mass density=214.43 kg/m3 | 201 kPa/K
599.42 K, Mass density=312.91 kg/m3 | 192 kPa/K and 244 kPa/K
599.44 K, Mass density=320.33 kg/m3 | 250 kPa/K
599.52 K, Mass density=206.01 kg/m3 | 198 kPa/K
599.57 K, Mass density=311.19 kg/m3 | 193 kPa/K and 240 kPa/K
599.57 K, Mass density=456.58 kg/m3 | 456 kPa/K
599.67 K, Mass density=309.95 kg/m3 | 192 kPa/K and 236 kPa/K
599.78 K, Mass density=308.35 kg/m3 | 192 kPa/K and 234 kPa/K
599.89 K, Mass density=307.35 kg/m3 | 192 kPa/K and 231 kPa/K
599.91 K, Mass density=295.31 kg/m3 | 196 kPa/K
600.02 K, Mass density=305.44 kg/m3 | 192 kPa/K and 229 kPa/K
600.17 K, Mass density=195.99 kg/m3 | 195 kPa/K
600.17 K, Mass density=303.47 kg/m3 | 192 kPa/K and 229 kPa/K
600.29 K, Mass density=301.94 kg/m3 | 192 kPa/K and 228 kPa/K
600.48 K, Mass density=299.79 kg/m3 | 193 kPa/K and 226 kPa/K
600.59 K, Mass density=309.95 kg/m3 | 248 kPa/K
600.63 K, Mass density=297.6 kg/m3 | 193 kPa/K and 225 kPa/K
600.68 K, Mass density=230.31 kg/m3 | 200 kPa/K
600.77 K, Mass density=308.35 kg/m3 | 240 kPa/K
600.81 K, Mass density=295.31 kg/m3 | 193 kPa/K and 224 kPa/K
600.93 K, Mass density=292.97 kg/m3 | 194 kPa/K and 224 kPa/K
600.94 K, Mass density=260.02 kg/m3 | 193 kPa/K
600.94 K, Mass density=305.44 kg/m3 | 237 kPa/K
601.02 K, Mass density=291.16 kg/m3 | 192 kPa/K
601.02 K, Mass density=342.18 kg/m3 | 281 kPa/K
601.05 K, Mass density=291.16 kg/m3 | 193 kPa/K and 223 kPa/K
601.11 K, Mass density=320.33 kg/m3 | 257 kPa/K
601.16 K, Mass density=188.05 kg/m3 | 186 kPa/K and 168 kPa/K
601.19 K, Mass density=227.54 kg/m3 | 200 kPa/K
601.28 K, Mass density=214.43 kg/m3 | 203 kPa/K
601.28 K, Mass density=301.94 kg/m3 | 234 kPa/K
601.34 K, Mass density=285.71 kg/m3 | 196 kPa/K and 222 kPa/K
601.37 K, Mass density=206.01 kg/m3 | 199 kPa/K
601.37 K, Mass density=224.53 kg/m3 | 201 kPa/K
601.45 K, Mass density=297.6 kg/m3 | 225 kPa/K
601.45 K, Mass density=299.79 kg/m3 | 239 kPa/K
601.54 K, Mass density=295.31 kg/m3 | 238 kPa/K
601.71 K, Mass density=230.31 kg/m3 | 202 kPa/K
601.71 K, Mass density=376.89 kg/m3 | 327 kPa/K
601.75 K, Mass density=195.99 kg/m3 | 195 kPa/K and 181 kPa/K
602.05 K, Mass density=218.92 kg/m3 | 201 kPa/K
602.05 K, Mass density=271.09 kg/m3 | 197 kPa/K and 217 kPa/K
602.22 K, Mass density=312.91 kg/m3 | 261 kPa/K
602.26 K, Mass density=206.01 kg/m3 | 199 kPa/K and 188 kPa/K
602.31 K, Mass density=307.35 kg/m3 | 241 kPa/K
602.39 K, Mass density=376.89 kg/m3 | 320 kPa/K
602.45 K, Mass density=260.02 kg/m3 | 199 kPa/K and 215 kPa/K
602.65 K, Mass density=456.58 kg/m3 | 458 kPa/K
602.74 K, Mass density=214.43 kg/m3 | 202 kPa/K and 195 kPa/K
602.74 K, Mass density=342.18 kg/m3 | 286 kPa/K
602.85 K, Mass density=218.92 kg/m3 | 202 kPa/K and 198 kPa/K
602.91 K, Mass density=243.97 kg/m3 | 202 kPa/K and 208 kPa/K
602.96 K, Mass density=224.53 kg/m3 | 202 kPa/K and 200 kPa/K
602.96 K, Mass density=230.31 kg/m3 | 202 kPa/K and 204 kPa/K
602.97 K, Mass density=227.54 kg/m3 | 202 kPa/K and 203 kPa/K
603.08 K, Mass density=311.19 kg/m3 | 256 kPa/K
603.34 K, Mass density=206.01 kg/m3 | 182 kPa/K
603.76 K, Mass density=218.92 kg/m3 | 196 kPa/K
603.85 K, Mass density=214.43 kg/m3 | 191 kPa/K
603.85 K, Mass density=227.54 kg/m3 | 203 kPa/K
604.11 K, Mass density=224.53 kg/m3 | 200 kPa/K
604.11 K, Mass density=230.31 kg/m3 | 205 kPa/K
604.36 K, Mass density=243.97 kg/m3 | 210 kPa/K
605.39 K, Mass density=329 kg/m3 | 275 kPa/K
605.47 K, Mass density=147.43 kg/m3 | 120 kPa/K
606.58 K, Mass density=376.89 kg/m3 | 333 kPa/K
606.76 K, Mass density=195.99 kg/m3 | 172 kPa/K
607.78 K, Mass density=342.18 kg/m3 | 290 kPa/K
607.95 K, Mass density=376.89 kg/m3 | 332 kPa/K
608.04 K, Mass density=309.95 kg/m3 | 261 kPa/K
608.55 K, Mass density=160.07 kg/m3 | 131 kPa/K
609.42 K, Mass density=320.33 kg/m3 | 279 kPa/K
609.48 K, Mass density=195.99 kg/m3 | 168 kPa/K
609.71 K, Mass density=308.35 kg/m3 | 272 kPa/K
609.99 K, Mass density=295.31 kg/m3 | 250 kPa/K
610.25 K, Mass density=312.91 kg/m3 | 270 kPa/K
610.59 K, Mass density=311.19 kg/m3 | 265 kPa/K
610.85 K, Mass density=307.35 kg/m3 | 266 kPa/K
611.44 K, Mass density=299.79 kg/m3 | 257 kPa/K
611.55 K, Mass density=342.18 kg/m3 | 299 kPa/K
611.61 K, Mass density=230.31 kg/m3 | 209 kPa/K
611.61 K, Mass density=301.94 kg/m3 | 259 kPa/K
612.63 K, Mass density=376.89 kg/m3 | 342 kPa/K
615.35 K, Mass density=160.07 kg/m3 | 131 kPa/K
616.03 K, Mass density=311.19 kg/m3 | 277 kPa/K
616.12 K, Mass density=312.91 kg/m3 | 269 kPa/K
616.28 K, Mass density=309.95 kg/m3 | 261 kPa/K
616.37 K, Mass density=329 kg/m3 | 285 kPa/K
617.05 K, Mass density=299.79 kg/m3 | 260 kPa/K
618.4 K, Mass density=342.18 kg/m3 | 304 kPa/K
620.1 K, Mass density=297.6 kg/m3 | 260 kPa/K
624.91 K, Mass density=160.07 kg/m3 | 132 kPa/K
633.33 K, Mass density=160.07 kg/m3 | 134 kPa/K
